In the supplement of paper PMC8149375:

Assays:
Conditions in all cases: treatment: drug + dasatinib (fixed dose, not stated); 5 days
769-P [1] = assay: GI50 of drug in presence of dasatinib; higher = less potent
Experimental: (§1)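 Primary HTS combination arm: 8 RCC cell lines treated with 8 doses (up to 10 uM) of each library drug plus a fixed dose of dasatinib (dose not stated) for 5 days; viability read by CellTiter-Glo and normalised to DMSO. GI50 was fitted with XLfit, AUC is the area under the dose-response curve, and minimum viability is the lowest fraction of DMSO viability across doses.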

SN12C [2] = assay: as above
Experimental: as §1

CAKI-1 [3] = assay: as above
Experimental: as §1

ACHN [4] = assay: as above
Experimental: as §1

UO-31 [5] = assay: as above
Experimental: as §1

786-O [6] = assay: as above
Experimental: as §1

A498 [7] = assay: as above
Experimental: as §1

TK-10 [8] = assay: as above
Experimental: as §1

769-P [9] = assay: minimum viability across doses, drug + dasatinib, relative to DMSO (fraction); higher = less growth inhibition
Experimental: as §1

SN12C [10] = assay: as above
Experimental: as §1

CAKI-1 [11] = assay: as above
Experimental: as §1

ACHN [12] = assay: as above
Experimental: as §1

UO-31 [13] = assay: as above
Experimental: as §1

786-O [14] = assay: as above
Experimental: as §1

A498 [15] = assay: as above
Experimental: as §1

TK-10 [16] = assay: as above
Experimental: as §1

769-P [17] = assay: AUC of dose-response viability curve, drug + dasatinib, normalised to DMSO (arbitrary (AUC of normalised viability)); higher = less growth inhibition
Experimental: as §1

SN12C [18] = assay: as above
Experimental: as §1

CAKI-1 [19] = assay: as above
Experimental: as §1

ACHN [20] = assay: as above
Experimental: as §1

UO-31 [21] = assay: as above
Experimental: as §1

786-O [22] = assay: as above
Experimental: as §1

A498 [23] = assay: as above
Experimental: as §1

TK-10 [24] = assay: as above
Experimental: as §1

SMILES | GI50 of drug (769-P [1]) [nM] | GI50 of drug (SN12C [2]) [nM] | GI50 of drug (CAKI-1 [3]) [nM] | GI50 of drug (ACHN [4]) [nM] | GI50 of drug (UO-31 [5]) [nM] | GI50 of drug (786-O [6]) [nM] | GI50 of drug (A498 [7]) [nM] | GI50 of drug (TK-10 [8]) [nM] | minimum viability across doses (769-P [9]) | minimum viability across doses (SN12C [10]) | minimum viability across doses (CAKI-1 [11]) | minimum viability across doses (ACHN [12]) | minimum viability across doses (UO-31 [13]) | minimum viability across doses (786-O [14]) | minimum viability across doses (A498 [15]) | minimum viability across doses (TK-10 [16]) | AUC of dose-response viability curve (769-P [17]) | AUC of dose-response viability curve (SN12C [18]) | AUC of dose-response viability curve (CAKI-1 [19]) | AUC of dose-response viability curve (ACHN [20]) | AUC of dose-response viability curve (UO-31 [21]) | AUC of dose-response viability curve (786-O [22]) | AUC of dose-response viability curve (A498 [23]) | AUC of dose-response viability curve (TK-10 [24])
C=CC(=O)Nc1cccc(Oc2nc(Nc3ccc(N4CCN(C)CC4)cc3)ncc2Cl)c1 [WZ3146] + Cc1nc(Nc2ncc(C(=O)Nc3c(C)cccc3Cl)s2)cc(N2CCN(CCO)CC2)n1 [dasatinib] | 523 | 997 | 345 | 72.3 | 553 | 878 | 3060 | 373 | 0.056 | 0.0852 | 0.00112 | 0.034 | 0.00923 | 0.0305 | 0.301 | 0.0372 | 1.85 | 1.92 | 1.47 | 1.21 | 2.32 | 1.88 | 2.76 | 1.76
C=CC(=O)Nc1cccc(Sc2nc(Nc3ccc(N4CCN(C)CC4)cc3)ncc2Cl)c1 [WZ8040] + Cc1nc(Nc2ncc(C(=O)Nc3c(C)cccc3Cl)s2)cc(N2CCN(CCO)CC2)n1 [dasatinib] | 1160 | 3880 | 1650 | 127 | 2340 | 1480 | 8300 | 652 | 0.0198 | 0.00446 | 0.00162 | 0.00268 | 0.0164 | 0.00713 | 0.113 | 0.0196 | 2.02 | 2.18 | 1.96 | 1.5 | 2.72 | 2.05 | 3.23 | 1.96
COC[C@H]1OC(=O)c2coc3c2[C@@]1(C)C1=C(C3=O)[C@@H]2CCC(=O)[C@@]2(C)C[C@@H]1OC(C)=O [Wortmannin] + Cc1nc(Nc2ncc(C(=O)Nc3c(C)cccc3Cl)s2)cc(N2CCN(CCO)CC2)n1 [dasatinib] | > 10000 | 53.4 | 15.8 | 41.4 | > 10000 | 32.5 | 84.8 | > 10000 | 0.487 | 0.342 | 0.123 | 0.425 | 0.688 | 0.00996 | 0.153 | 0.633 | 2.25 | 2.16 | 1.38 | 1.87 | 2.3 | 1.62 | 2.76 | 2.46
Cc1ccc(S(=O)(=O)Nc2nc3ccccc3nc2Nc2ccc3nsnc3c2)cc1 [XL147] + Cc1nc(Nc2ncc(C(=O)Nc3c(C)cccc3Cl)s2)cc(N2CCN(CCO)CC2)n1 [dasatinib] | > 10000 | > 10000 | > 10000 | > 10000 | > 10000 | > 10000 | > 10000 | > 10000 | 0.634 | 0.651 | 0.764 | 0.551 | 0.909 | 0.642 | 0.924 | 0.743 | 2.42 | 2.42 | 2.82 | 2.12 | 3.44 | 2.67 | 3.43 | 2.87
